Reference: PubChem BioAssay (NCI)
“And” between values parts separate entries of the source, which are not always exact repeats. Equal values may be shown once.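 Five compound concentrations were applied to cells in 96-well plates for 48 hours; endpoints were derived by simple linear interpolation of the resulting dose-response curve. Here, GI50 denotes the concentration required for 50% inhibition of growth. TGI is the concentration that stops growth completely.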

Columns and labels:
Test in all cases: DTP human tumour cell line panel, 48 h
A498 renal = tested on: A498 renal
ACHN renal = tested on: ACHN renal
HCC-2998 colon = tested on: HCC-2998 colon
HCT-116 colon = tested on: HCT-116 colon
HOP-62 NSCLC = tested on: HOP-62 NSCLC
MOLT-4 leukemia = tested on: MOLT-4 leukemia
SN12C renal = tested on: SN12C renal
SR leukemia = tested on: SR leukemia
U251 CNS = tested on: U251 CNS
BT-549 breast = tested on: BT-549 breast

| Structure (SMILES) | TGI (A498 renal) | TGI (ACHN renal) | TGI (HCC-2998 colon) | TGI (HCT-116 colon) | TGI (HOP-62 NSCLC) | TGI (MOLT-4 leukemia) | TGI (SN12C renal) | TGI (SR leukemia) | TGI (U251 CNS) | TGI (BT-549 breast) | GI50 (A498 renal) | GI50 (ACHN renal) | GI50 (BT-549 breast) | GI50 (HCC-2998 colon) | GI50 (MOLT-4 leukemia) | GI50 (SN12C renal) | GI50 (SR leukemia) |
| --- | --- | --- | --- | --- | --- | --- | --- | --- | --- | --- | --- | --- | --- | --- | --- | --- | --- |
| CCN(CC)CCNc1ccc2nnn3c4ccccc4c(=O)c1c23 | 24.2 µM | > 100 µM | 20.9 µM | 35.2 µM | 15.8 µM | 6.7 µM | 33.4 µM | 5.44 µM | 9.22 µM | – | – | – | – | – | – | – | – |
| CCC(=O)NCCc1c2c3c(ccnc3c3ncsc13)-c1ccccc1N2 | > 100 µM | > 38.3 µM | – | 51.2 µM | > 100 µM | > 64.5 µM | > 100 µM | – | > 79.7 µM | 57.3 µM | – | – | – | – | – | – | – |
| COc1cc(C23OCC(Cc4cc5c(cc42)OCO5)C3CO)cc(OC)c1OC (stereo not given) | > 100 µM | > 100 µM | 6.89 µM | > 100 µM | > 100 µM | > 100 µM | – | > 100 µM | 43.8 µM | > 100 µM | – | – | – | – | – | – | – |
| Cc1ccc(C2CC(c3cccc(Nc4ccncc4)c3)=NN2c2ccccc2)cc1 (stereo not given) | 5.63 µM | 3.05 µM | 2.96 µM | – | – | 4.64 µM | 3.19 µM | 5.73 µM | – | 3.37 µM | 1.86 µM | 1.69 µM | 1.81 µM | 1.6 µM | 1.95 µM | 1.69 µM | 2.07 µM |
| CCOC(=O)NC(=S)c1ccc(O)c2ccccc12 | > 100 µM | > 100 µM | > 100 µM | > 100 µM | > 100 µM | > 100 µM | – | > 100 µM | > 100 µM | 95.2 µM | – | – | – | – | – | – | – |
| CC(C)CN(CC#N)CC(C)C | > 100 µM | > 100 µM | > 100 µM | > 100 µM | > 100 µM | > 100 µM | > 100 µM | – | > 100 µM | > 100 µM | – | – | – | – | – | – | – |
| O=[N+]([O-])c1sc2ccc(Cl)cc2c1Nc1ccc(Cl)cc1 | > 100 µM | > 100 µM | > 100 µM | – | > 100 µM | > 100 µM | > 100 µM | – | > 100 µM | > 100 µM | – | – | – | – | – | – | – |
| O=[N+]([O-])c1cccc2nc3ccccc3c(NCCCN3CCCCC3)c12 | < 0.0219 µM | 0.0472 µM | – | 0.0629 µM | 0.0433 µM | 0.0681 µM | 0.0443 µM | – | 0.0734 µM | 0.114 µM | – | – | – | – | – | – | – |
| Cc1c2c(ccc3ccccc32)c[n+]2ccccc12 | – | > 100 µM | 26 µM | > 100 µM | 26.7 µM | 27.9 µM | – | 23.3 µM | 13.8 µM | – | – | – | – | – | – | – | – |
| N#Cc1c(-c2ccccc2)c(C#N)c(=O)n(C2OC(CO)C(O)C(O)C2O)c1S (stereo not given) | > 100 µM | > 100 µM | > 100 µM | – | > 100 µM | > 100 µM | > 100 µM | > 100 µM | – | > 100 µM | – | – | – | > 100 µM and 40.4 µM | – | – | – |
| O=C(O)c1nccnc1C(=O)O | – | – | > 100 µM | > 100 µM | – | > 100 µM | > 100 µM | > 100 µM | > 100 µM | – | – | – | – | – | – | – | – |
| CC(=O)Oc1c2oc3cc(O)c(O)cc3c2c(OC(C)=O)c2oc3cc(O)c(O)cc3c12 | – | 74.8 µM | 40.7 µM | 38.2 µM | 35.9 µM | > 100 µM | 58.6 µM | > 100 µM | 3.44 µM | 31.1 µM | – | – | – | – | – | – | – |
